Source: PubChem BioAssay AID1963861 (Molecular Pharmacology Branch, DTP, NCI, 2024)
Where “and” joins values, the source holds several entries; their conditions need not be identical. Equal entries are not always repeated.

Test system: 885724-159-R-J1-PDC KRAS PDC multicell spheroid viability
Experiment: Anticancer human tumor 885724-159-R-J1-PDC patient-derived pancreatic adenocarcinoma cell line growth inhibition [KRAS2]
Conditions: for viability, T/C: stronger effect = lower value
Procedure, shortened: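 Combination screen of spheroid viability in tumor-cell co-cultures with endothelial (HUVEC) and mesenchymal stem cell stroma. Each agent was tested in half-log dilutions, topping at clinical Cmax or at 10 microM without a known Cmax.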

[1] = curve of first compound, second compound 0.1 µM
[2] = curve of first compound, second compound 0.316 µM
[3] = curve of first compound, second compound 1 µM
[4] = curve of first compound, second compound 3.16 µM
[5] = curve of first compound, second compound 10 µM
[6] = second compound 0.1 µM, first compound 0.01 µM
[7] = second compound 0.1 µM, first compound 0.0316 µM
[8] = second compound 0.1 µM, first compound 0.1 µM
[9] = second compound 0.1 µM, first compound 0.316 µM
[10] = second compound 0.1 µM, first compound 1 µM
[11] = second compound 0.316 µM, first compound 0.01 µM
[12] = second compound 0.316 µM, first compound 0.0316 µM
[13] = second compound 0.316 µM, first compound 0.1 µM
[14] = second compound 0.316 µM, first compound 0.316 µM
[15] = second compound 0.316 µM, first compound 1 µM
[16] = second compound 1 µM, first compound 0.01 µM
[17] = second compound 1 µM, first compound 0.0316 µM
[18] = second compound 1 µM, first compound 0.1 µM
[19] = second compound 1 µM, first compound 0.316 µM
[20] = second compound 1 µM, first compound 1 µM
[21] = second compound 3.16 µM, first compound 0.01 µM
[22] = second compound 3.16 µM, first compound 0.0316 µM
[23] = second compound 3.16 µM, first compound 0.1 µM
[24] = second compound 3.16 µM, first compound 0.316 µM
[25] = second compound 3.16 µM, first compound 1 µM
[26] = second compound 10 µM, first compound 0.01 µM
[27] = second compound 10 µM, first compound 0.0316 µM
[28] = second compound 10 µM, first compound 0.1 µM
[29] = second compound 10 µM, first compound 0.316 µM
[30] = second compound 10 µM, first compound 1 µM
[31] = second compound 0.1 µM, first compound 3.16 µM
[32] = second compound 0.316 µM, first compound 3.16 µM
[33] = second compound 1 µM, first compound 3.16 µM
[34] = second compound 3.16 µM, first compound 3.16 µM
[35] = second compound 10 µM, first compound 3.16 µM
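Also: spheroids exposed to agents for 7 days before readout.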

Structure (SMILES) | IC50 [1] [µM] | IC50 [2] [µM] | IC50 [3] [µM] | IC50 [4] [µM] | IC50 [5] [µM] | viability, T/C [7] [%] | viability, T/C [8] [%] | viability, T/C [9] [%] | viability, T/C [10] [%] | viability, T/C [12] [%] | viability, T/C [13] [%] | viability, T/C [14] [%] | viability, T/C [15] [%] | viability, T/C [17] [%] | viability, T/C [18] [%] | viability, T/C [19] [%] | viability, T/C [20] [%] | viability, T/C [22] [%] | viability, T/C [23] [%] | viability, T/C [24] [%] | other results
CCN1CCN(Cc2ccc(Nc3ncc(F)c(-c4cc(F)c5nc(C)n(C(C)C)c5c4)n3)nc2)CC1 + C=CC(=O)N1CCN(c2nc(=O)n(-c3c(C)ccnc3C(C)C)c3nc(-c4c(O)cccc4F)c(F)cc23)C(C)C1 | > 1 | > 1 | > 1 | > 1 | > 1 | 99.3 | 92.6 | 87.2 | 92.6 | 102 | 95.1 | 101 | 107 | 106 | 101 | 106 | 104 | 104 | 101 | 110 | viability, T/C (second compound 0.1 µM, first compound 0.00316 µM): 116%; viability, T/C [6]: 98.6%; viability, T/C (second compound 0.316 µM, first compound 0.00316 µM): 114%; viability, T/C [11]: 104%; viability, T/C (second compound 1 µM, first compound 0.00316 µM): 112%; viability, T/C [16]: 116%; viability, T/C (second compound 3.16 µM, first compound 0.00316 µM): 114%; viability, T/C [21]: 122%; viability, T/C [25]: 114%; viability, T/C (second compound 10 µM, first compound 0.00316 µM): 72.6%; viability, T/C [26]: 84.2%; viability, T/C [27]: 84.8%; viability, T/C [28]: 85%; viability, T/C [29]: 88.8%; viability, T/C [30]: 80.2%
CC1OCC2(CCN(c3cnc(Sc4ccnc(N)c4Cl)c(N)n3)CC2)C1N (configuration not stated) |  |  |  |  |  |  |  |  |  |  |  |  |  |  |  |  |  |  |  |  | viability, T/C (compound 0.0316 µM): 99.7% and 101% and 102%; viability, T/C (compound 0.1 µM): 92.4% [middle of 19 runs]; viability, T/C (compound 3.16 µM): 71.4% [middle of 20 runs]; IC50 (compound alone, run of 08/19/2021): > 10 µM; IC50 (compound alone, run of 08/26/2021): > 10 µM; IC50 (compound alone, run of 09/02/2021): > 10 µM; IC50 (curve of compound): > 10 µM
CC(=O)OC12COC1CC(O)C1(C)C(=O)C(O)C3=C(C)C(OC(=O)C(O)C(NC(=O)OC(C)(C)C)c4ccccc4)CC(O)(C(OC(=O)c4ccccc4)C21)C3(C)C (configuration not stated) + COc1cc2nc(C)nc(NC(C)c3cc(N)cc(C(F)(F)F)c3)c2cc1OC1CCOC1 | > 3.16 | > 3.16 | > 3.16 | > 3.16 | > 3.16 | 116 | 113 | 122 | 135 | 112 | 116 | 125 | 120 | 130 | 127 | 132 | 142 | 104 | 121 | 111 | viability, T/C [6]: 105%; viability, T/C [31]: 132%; viability, T/C [11]: 104%; viability, T/C [32]: 126%; viability, T/C [16]: 104%; viability, T/C [33]: 141%; viability, T/C [21]: 95.1%; viability, T/C [25]: 119%; viability, T/C [34]: 119%; viability, T/C [26]: 90.2%; viability, T/C [27]: 105%; viability, T/C [28]: 119%; viability, T/C [29]: 121%; viability, T/C [30]: 117%; viability, T/C [35]: 111%
CCNC(=O)CC1N=C(c2ccc(Cl)cc2)c2cc(OC)ccc2-n2c(C)nnc21 (configuration not stated) + CNCc1ccccc1-c1csc(C(C)Nc2nc(C)nc3cc(OC)c(OC)cc23)c1 | > 10 | > 10 | > 10 | < 0.0316 | < 0.0316 | 122 | 114 | 77.3 | 63.2 | 118 | 113 | 81.9 | 61.8 | 110 | 116 | 79.1 | 59.7 | 1.45 | 11.5 | 1.37 | viability, T/C [31]: 53.7%; viability, T/C (second compound 0.1 µM, first compound 10 µM): 52.5%; viability, T/C [32]: 55.1%; viability, T/C (second compound 0.316 µM, first compound 10 µM): 48.3%; viability, T/C [33]: 52.6%; viability, T/C (second compound 1 µM, first compound 10 µM): 49.7%; viability, T/C [25]: 1.56%; viability, T/C [34]: 0.16%; viability, T/C (second compound 3.16 µM, first compound 10 µM): 0.43%; viability, T/C [27]: 0.33%; viability, T/C [28]: 0.2%; viability, T/C [29]: 0.25%; viability, T/C [30]: 0.16%; viability, T/C [35]: 0.18%; viability, T/C (second compound 10 µM, first compound 10 µM): 0.26%
